Results from patent US20080102497A1, “ENZYMATIC HYDROLYSIS OF STARCH” (priority 2006, published 2008).

How the values were obtained:
Assay type in all cases: biochemical
[1] = system: glucoamylase from Rhizopus sp.; experiment: pH effect on hydrolysis of raw corn starch; conditions: for Relative Activity: 37° C., 20 min, control at pH 4 = 100
Experimental: Enzyme solutions of the glucoamylase from Rhizopus sp. Were prepared in various pH buffers having a pH of 3, 4, 5, 6, 7, or 8. Thereafter, 40 μl of the buffered enzyme solution and a stock solution containing Mn^++ were added to 6 samples containing 15 mg raw corn starch to provide a reaction mixture containing 1.0 mM Mn^++. The reaction mixtures were incubated at 37° C. for 20 minutes.

[2] = system: glucoamylase from Rhizopus sp.; experiment: hydrolysis of raw corn starch, reducing sugar by DNSA; conditions: for Relative Activity: raw corn starch, pH 5.3, 37° C., 20 min
Description: (§1) The α-amylase from Aspergillus oryzae and the glucoamylase from Rhizopus sp.

[3] = target: α-amylase from Aspergillus oryzae (Aspergillus oryzae, UniProt P0C1B3); experiment: as above; conditions: for Relative Activity: raw corn starch, pH 5.3, 37° C., 20 min
Description: as §1

[4] = target: T1, β-amylase Type II-B from barley (Hordeum vulgare, UniProt P16098); experiment: hydrolysis of raw corn starch or soluble starch; conditions: for % Relative Activity: pH 5.3, 37° C., 20 min
T1 construct: purchased Sigma Sigma-7130
T1 sequence (P16098 whole entry): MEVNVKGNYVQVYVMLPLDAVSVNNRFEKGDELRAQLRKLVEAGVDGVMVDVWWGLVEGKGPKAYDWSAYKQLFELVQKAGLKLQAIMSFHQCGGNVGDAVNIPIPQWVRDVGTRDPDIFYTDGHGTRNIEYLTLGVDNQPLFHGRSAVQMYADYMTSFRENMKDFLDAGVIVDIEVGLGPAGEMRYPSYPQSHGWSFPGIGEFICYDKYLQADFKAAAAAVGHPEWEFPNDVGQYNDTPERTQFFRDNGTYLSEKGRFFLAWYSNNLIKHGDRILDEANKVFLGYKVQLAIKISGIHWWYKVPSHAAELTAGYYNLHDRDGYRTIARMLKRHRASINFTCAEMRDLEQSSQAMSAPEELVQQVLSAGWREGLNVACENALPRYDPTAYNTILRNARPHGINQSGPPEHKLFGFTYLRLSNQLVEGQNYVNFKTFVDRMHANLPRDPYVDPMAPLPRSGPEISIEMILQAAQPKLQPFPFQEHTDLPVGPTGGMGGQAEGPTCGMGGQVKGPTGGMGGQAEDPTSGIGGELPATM
Experimental: (§2) Each of the buffered enzyme solutions was separately added to 15 mg raw corn starch or 0.6 mg soluble starch, and the reaction mixtures incubated at 37° C. for 20 minutes. The control reaction mixture contained substrate, enzyme, and buffer but no manganese ion. The starch hydrolysis reaction was stopped by combining the reaction mixture with a solution containing DNSA and heating for 30 min at 85° C. The absorbance of the control and test samples was measured at 562 nm to monitor the amount of reducing sugar in each sample.

[5] = target: T2, β-amylase from sweet potato (Ipomoea batatas, UniProt P10537); experiment: hydrolysis of raw corn starch or soluble starch; conditions: for % Relative Activity: pH 5.3, 37° C., 20 min
T2 construct: purchased Sigma A-7005
T2 sequence (P10537 whole entry): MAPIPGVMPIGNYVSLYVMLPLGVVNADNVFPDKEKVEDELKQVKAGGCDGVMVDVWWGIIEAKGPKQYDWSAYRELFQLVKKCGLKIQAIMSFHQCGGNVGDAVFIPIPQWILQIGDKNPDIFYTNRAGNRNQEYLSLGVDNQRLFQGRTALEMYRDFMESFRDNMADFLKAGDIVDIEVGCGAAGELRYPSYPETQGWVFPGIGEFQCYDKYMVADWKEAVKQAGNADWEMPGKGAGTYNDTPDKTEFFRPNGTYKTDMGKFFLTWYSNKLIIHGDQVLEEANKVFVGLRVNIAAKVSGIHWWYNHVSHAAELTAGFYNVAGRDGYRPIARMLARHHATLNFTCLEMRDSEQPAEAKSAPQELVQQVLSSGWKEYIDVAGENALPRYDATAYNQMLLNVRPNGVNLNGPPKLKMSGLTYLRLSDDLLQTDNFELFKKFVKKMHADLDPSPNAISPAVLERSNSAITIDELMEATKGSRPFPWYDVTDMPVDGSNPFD
Experimental: as §2

[6] = raw corn starch and soluble starch

**Q.** [Mn+2] [Mn^++, manganese ions] was tested. Which “pH of greatest Mn^++-induced activation” value ([1]; 1.0 mM Mn^++, pH 3-8 tested) did it give?
**A.** 5.0

**Q.** What about the “Relative Activity” value ([1]; pH 3, 1.0 mM Mn^++) of the same compound?
**A.** 98%

**Q.** And the “Relative Activity” value ([1]; pH 4, 1.0 mM Mn^++)?
**A.** 146.7%

**Q.** What about the “Relative Activity” value ([1]; pH 5, 1.0 mM Mn^++) of the same compound?
**A.** 148.6%

**Q.** What about the “Relative Activity” value ([1]; pH 6, 1.0 mM Mn^++) of the same compound?
**A.** 127.8%

**Q.** And the “Relative Activity” value ([1]; pH 7, 1.0 mM Mn^++)?
**A.** 103.1%

**Q.** What about the “Relative Activity” value ([1]; pH 8, 1.0 mM Mn^++) of the same compound?
**A.** 44.3%

**Q.** What about the “Relative Activity” value ([2]; 0.01 mM Mn^++) of the same compound?
**A.** 105.0%

**Q.** What about the “Relative Activity” value ([2]; 0.1 mM Mn^++) of the same compound?
**A.** 119.2%

**Q.** And the “Relative Activity” value ([2]; 1 mM Mn^++)?
**A.** 133.5%

**Q.** And the “Relative Activity” value ([2]; 10 mM Mn^++)?
**A.** 162.6%

**Q.** What about the “effect on hydrolysis of raw corn starch (in words)” value ([2]; summary of Table 3) of the same compound?
**A.** enhances the hydrolysis of raw corn starch

**Q.** What about the “Relative Activity” value ([3]; 0.01 mM Mn^++) of the same compound?
**A.** 106.6%

**Q.** What about the “Relative Activity” value ([3]; 0.1 mM Mn^++) of the same compound?
**A.** 125.5%

**Q.** What about the “Relative Activity” value ([3]; 1 mM Mn^++) of the same compound?
**A.** 136.7%

**Q.** What about the “Relative Activity” value ([3]; 10 mM Mn^++) of the same compound?
**A.** 155.6%

**Q.** What about the “effect on hydrolysis of raw corn starch (in words)” value ([3]; summary of Table 3) of the same compound?
**A.** enhances the hydrolysis of raw corn starch

**Q.** And the “% Relative Activity” value ([4]; 0.01 mM Mn^++, raw corn starch)?
**A.** 99.5%

**Q.** And the “% Relative Activity” value ([4]; 0.01 mM Mn^++, soluble starch)?
**A.** 112.5%

**Q.** And the “% Relative Activity” value ([4]; 0.1 mM Mn^++, raw corn starch)?
**A.** 118.4%

**Q.** And the “% Relative Activity” value ([4]; 0.1 mM Mn^++, soluble starch)?
**A.** 119.2%

**Q.** What about the “% Relative Activity” value ([4]; 1 mM Mn^++, raw corn starch) of the same compound?
**A.** 133.3%

**Q.** What about the “% Relative Activity” value ([4]; 1 mM Mn^++, soluble starch) of the same compound?
**A.** 155.7%

**Q.** What about the “% Relative Activity” value ([4]; 10 mM Mn^++, raw corn starch) of the same compound?
**A.** 152.2%

**Q.** And the “% Relative Activity” value ([4]; 10 mM Mn^++, soluble starch)?
**A.** 157.3%

**Q.** And the “effect on hydrolysis of starch (in words)” value [4, 6]?
**A.** enhances the hydrolysis of both raw corn starch and soluble starch

**Q.** And the “% Relative Activity” value ([5]; 0.01 mM Mn^++, raw corn starch)?
**A.** 113.9%

**Q.** And the “% Relative Activity” value ([5]; 0.01 mM Mn^++, soluble starch)?
**A.** 108.6%

**Q.** And the “% Relative Activity” value ([5]; 0.1 mM Mn^++, raw corn starch)?
**A.** 106.6%

**Q.** What about the “% Relative Activity” value ([5]; 0.1 mM Mn^++, soluble starch) of the same compound?
**A.** 127.1%

**Q.** What about the “% Relative Activity” value ([5]; 1 mM Mn^++, raw corn starch) of the same compound?
**A.** 136.5%

**Q.** What about the “% Relative Activity” value ([5]; 1 mM Mn^++, soluble starch) of the same compound?
**A.** 146.6%

**Q.** And the “% Relative Activity” value ([5]; 10 mM Mn^++, raw corn starch)?
**A.** 160.6%

**Q.** What about the “% Relative Activity” value ([5]; 10 mM Mn^++, soluble starch) of the same compound?
**A.** 176.3%

**Q.** What about the “effect on hydrolysis of starch (in words)” value [5, 6] of the same compound?
**A.** enhances the hydrolysis of both raw corn starch and soluble starch
